This is an account of results in patent US5863946A, “Iminoxyderivatives of fenamates as inhibitors of prostaglandin biosynthesis” (Abbott Laboratories, priority 1996, dated 1999).

pIC50: −log10 of the molar value.

Assay [1] has as its system prostaglandin endoperoxide H synthase 1 (PGHS-1). The note with it: reported in literature; cited from earlier work.
Assay [2] relates to prostaglandin endoperoxide H synthase 2 (PGHS-2). The note with it: reported in literature; cited from earlier work.
Another assay addresses T1, recombinant human PGHS-1 (Homo sapiens, UniProt P23219).
T1 construct: made in house; host or cells: baculovirus/Sf9 insect cells (microsomes)
Kind of assay: Inhibition of PGE2 production by recombinant human PGHS-1 (microsomes, baculovirus/Sf9; EIA). The settings on record: human recombinant PGHS-1; 60 min preincubation; 10 μM arachidonic acid, 2.5 min. Type of assay: biochemical. The protocol: (§1) Inhibition of prostaglandin biosynthesis was evaluated in recombinant human PGHS-1 and PGHS-2 enzyme assays. Representative compounds dissolved in DMSO (3.3% v/v) were preincubated with microsomes from recombinant human PGHS-1 or PGHS-2 expressed in the baculovirus/Sf9 cell system (Gierse, J. K., Hauser, […]., and Seibert, K. […] The reaction was allowed to run for 2.5 minutes at room temperature prior to quenching with HCl and neutralization with NaOH. PGE2 production in the presence and absence of the drug was determined by EIA analysis. The EIA was conducted in 96 well microtiter plates (Nunc Roskilde, Denmark) and optical density measured using a microplate reader (Vmax, Molecular Devices Corp., Menlo Park, Calif.). EIA reagents for prostaglandin determination were purchased from Perseptive Diagnostics, Cambridge, Mass. PGE2 levels were measured against standards prepared in the same milieu. The immunoassays were conducted as recommended by the manufacturer.

The next assay relates to recombinant human PGHS-2. The assay is described as follows: Inhibition of PGE2 production by recombinant human PGHS-2 (microsomes, baculovirus/Sf9; EIA). The class given is biochemical. The note with it: human recombinant PGHS-2, 60 min preincubation, 10 μM arachidonic acid, 2.5 min. The protocol:
as §1

T1 sequence (P23219 24-599): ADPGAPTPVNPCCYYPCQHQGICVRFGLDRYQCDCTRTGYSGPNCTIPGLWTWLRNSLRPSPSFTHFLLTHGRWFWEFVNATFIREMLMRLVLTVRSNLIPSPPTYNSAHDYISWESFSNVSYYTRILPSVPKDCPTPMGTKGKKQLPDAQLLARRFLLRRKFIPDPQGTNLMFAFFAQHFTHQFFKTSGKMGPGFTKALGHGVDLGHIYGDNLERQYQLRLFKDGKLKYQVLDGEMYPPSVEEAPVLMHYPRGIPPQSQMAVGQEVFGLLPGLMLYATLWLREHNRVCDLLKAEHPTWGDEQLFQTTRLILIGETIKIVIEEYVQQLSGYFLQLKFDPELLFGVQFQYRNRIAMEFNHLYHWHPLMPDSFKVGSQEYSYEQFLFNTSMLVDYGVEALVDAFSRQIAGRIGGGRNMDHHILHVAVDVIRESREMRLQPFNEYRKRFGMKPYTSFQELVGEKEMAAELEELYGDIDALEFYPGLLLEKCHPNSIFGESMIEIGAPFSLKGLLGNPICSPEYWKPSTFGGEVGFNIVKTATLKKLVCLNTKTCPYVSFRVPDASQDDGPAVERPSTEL

As for `Cc1ccc(Cl)c(Nc2ccccc2C(=O)O)c1Cl` [Meclofenamic acid], the “inhibition of PGHS-1” value in assay [1] is “inhibit both PGHS-1 and PGHS-2”. The “inhibition of PGHS-2” value in assay [2] is “inhibit both PGHS-1 and PGHS-2”.

Take `COc1ccc2cc([C@H](C)C(=O)O)ccc2c1` [naproxen]: in assay [1], the “inhibition of PGHS-1” value is given as “inhibit both isozymes”. For the same molecule, in assay [2], the “inhibition of PGHS-2” value is “inhibit both isozymes”.

As a reminder, the pIC50 is −log10 of the IC50, conventionally taken in molar units. For `CC(=NOCc1ccccc1Nc1c(Cl)ccc(C)c1Cl)C(=O)O` [Example 2, pyruvic acid-O-[2-[(2,6-dichloro-3-methylphenyl)amino]phenylmethyl] oxime], the pIC50 at recombinant human PGHS-1 was 4.21. The “PGHS-2 % Inhibition” value in the assay with recombinant human PGHS-2 (@ 1.0 μM) is on record as 28%.

On to `Cc1ccc(Cl)c(Nc2ccccc2CON=CC(=O)O)c1Cl` [Example 1, glyoxylic acid-O-[2-(2,6-dichloro-3-methylphenylamino)phenylmethyl] oxime], for which the pIC50 at recombinant human PGHS-1 is 5.22. In the assay on recombinant human PGHS-2 (@ 0.1 μM), the “PGHS-2 % Inhibition” value stood at 68%.

In the case of `CC(C)Cc1ccc(C(C)C(=O)O)cc1` (stereo not shown) [ibuprofen], in assay [1], the “inhibition of PGHS-1” value is given as “inhibit both isozymes”. In addition, in assay [2], the “inhibition of PGHS-2” value is “inhibit both isozymes”.
